Consider one substance from patent US20100041603A1, “Method of Promoting Wound Healing” (Corthera, Inc., priority 2008, published 2010).

Data set [1] concerns 20×6 mm incisional wounds on the back. The data set can be described thus: Porcine skin wound study (incisional wounds, six weeks). The data set is classed as in vivo, juvenile pigs. The text has this: Overview of the Animal Study. In selecting the appropriate animal for this study, a pig was selected because of the anatomical similarities between pig skin and human skin. In fact, pig wound healing has been used in numerous studies to simulate human skin (Sullivan et al., Wound Repair Regen. 9: 66-76, 2001).
Design of Study. In this study, juvenile pigs were oriented with twelve wound sites per animal—20×6 mm incisional wounds on the back—over the course of a six week study (see FIG. 2). Systemic relaxin was delivered via mini-pumps to achieve 20 ng/mL serum concentrations. Topical formulations were prepared by Dow Pharma, and consisted of propylene glycol and ethanol, which contributed to good long term stability of the therapeutic agent. Dosages consisting of placebo, 0.5 mg/mL (low dose), and 2.5 mg/mL (high dose) were prepared. The goals of the study were to assess the safety of topical relaxin on wound healing and to determine the efficacy of relaxin as a treatment for wound healing and/or scar formation. During the first week, irrigation was performed once daily. During weeks 2-3, topical formulation was applied twice daily, and during weeks […], topical formulation was applied once daily.
Design of Drug The study drug was relaxin (produced by recombinant technology). Recombinant relaxin is identical to the native human hormone H2 relaxin, produced using a recombinant single chain process. The active test article may be aseptically diluted to the desired concentration with the acetate diluent (20 mM sodium acetate, pH 5.0).
Study Procedures. Referring to FIG. 3 which depicts the back of a pig with incisions according to the experimental design described herein at the completion of six weeks, the wound in Section 3 was irrigated with relaxin construct during the first week, and subsequently treated with high dose topical relaxin formulation during weeks 2-6 as described above. Sections 4, 5, and 6 received no irrigation during week 1. Section 4 was treated with placebo. Section 5 was treated with low dose topical formulation, and Section 6 was treated with high dose topical formulation.
Cosmetic appearance of skin. Visual rankings of wound pictures were conducted by neutral observers who evaluated scabs during early wound healing (days 5-7) and scars at the end of the study (see FIG. 4). […] The results of this visual wound assessment determined that 89% of the time a relaxin treatment group was selected in the top three. Only 11% of the time, a group not treated with relaxin was selected in the top three.
A cosmetic score was also determined by a professional dermatologist at weeks 2, 4, and 6. The cosmetic score has five components: (1) color—matching with surrounding skin; (2) texture—no hardness; (3) distortion—no distortion of nearby skin; (4) contour—flush with surrounding skin; (5) global—no hypertrophy or keloid formation. During this dermatological assessment, evaluation at time 2 weeks was obscured by scabs, so the data for cosmetic scores was collected from evaluation at weeks 4 and 6 (see FIG. 5). […] In the bottom profile, the scar is visible.
Histological evaluation. A professional histopathologist evaluated the pathology of the treatments for such indications as granulation, inflammation, and necrosis. In judging granulation tissue, it is considered that early response to wound includes invasion of the site by fibroblasts, inflammatory cells, and new blood vessels. Over time, this resolves to more normal tissue as the site heals. Chronic inflammation characterized by the presence of macrophages, giant cells, lymphocytes, and PMNs indicated adverse reaction. Minor factors such as keratosis (formation of keratin layer outside the epidermis) and acanthosis (thickening of the epidermal layer) are also considered. […]

Data set [2] in a line: Canine gingiva study: RLX migration and degradation after gingival injection (SELDI-TOF MS). The data set is classed as in vivo, dog. The note with it: for RLX detection in gingiva away from the site of injection: 1 hr time point; for concentration of H2 RLX detected in treated dog gingiva: site of injection. As to the method:
The aim of this study was to determine the rate of RLX migration and extent of degradation after gingival injections. […] Employing a dog model, RLX was administered and tissue punch biopsies were collected at the site of injection and 0.5, 1 and 2 cm from the site of injection. Tissue was collected at several time points including 1, 2 and 4 hrs after injection. Protein was extracted from the gingival biopsies and analysed via ProteinChip technology (Surface Enhanced Laser Desorption/Ionization Time-of-Flight Mass Spectrometry, SELDI-TOF MS), which combines two well-established methods of solid phase chromatography and TOF-MS into an integrated platform. ProteinChip arrays were coated with anti-H2 RLX Ab, allowing the specific capture of RLX and associated breakdown/modified products.
Design of Drug. Gingival injections were administered (25 μg H2 RLX/100 μl, 41 μM) and tissue was collected at several positions including the site of injection and 0.5, 1 and 2 cm from the site of injection. Tissue was collected 1, 2 and 3 hrs after injection.
a) Protein Extraction and Quantitation. Frozen gingival biopsies were homogenized in extraction buffer (10 μl/mg tissue) containing 10 mM Tris-HCl, 10 mM NaCl, 0.1% TFA and protease inhibitor (complete mini, Roche). The extract was centrifuged (6000×g) for 10 min and the supernatant was collected, aliquoted and stored at −80° C. Total protein concentration was determined using the Bradford assay. Protein concentrations ranged from 1.4 mg/ml to 2.8 mg/ml, all samples were standardized to 1.4 mg/ml in extraction buffer.
b) SELDI-TOF MS analysis—Analysis of RLX treated gingiva on PG20 arrays. Anti-H2 RLX Ab ([…]/0.25 mg/ml; Genentech) or control IgG (Ciphergen Biosystems) was applied to each spot of a PS20 array which had been pre-coated with Protein G (Ciphergen Biosystems). After antibody binding, the chip was washed once with PBS/0.5% Triton X-100 for 5 min with agitation (5 μl per spot), followed by two PBS washes. Dog gingiva extracts (3 μl/1.4 mg/ml) were applied to each spot and incubated for 4 hrs. Non-specifically bound proteins were removed by sequentially washing with PBS/0.5% Triton X-100, PBS and 1 mM HEPES, pH 7.2. The chips were air dried and 1 μl of 50% saturated sinapinic acid in 50% (v/v) acetonitrile, 0.5% trifluoroacetic acid was applied onto each spot twice, arrays were air dried between each application. Chips were subsequently analysed by SELDI-TOF MS (Ciphergen Biosystems) using the following settings, laser 220 and sensitivity 9.
c) Generation of H2 RLX Std Curve on PG20 arrays. H2 RLX (batch number 11835-89) was spiked into control dog gingiva (1.4 mg/ml) at different concentrations, including 100 nM, 50 nM, 12.5 nM, 6.25 nM, 3.125 nM and 1.56 nM and analysed as described above.
Findings. In order to quantitate the levels of RLX in the treated gingiva samples a H2 RLX standard curve was generated. The linear dynamic range was determined to be two orders of magnitude with a R^2 value of 0.9495.

The test system of data set [3] is 20×6 mm incisional wounds on the back. The data set can be described thus: Porcine skin wound study (incisional wounds, six weeks). The data set is classed as in vivo, juvenile pigs. Conditions: dose range 10-960 μg/kg/day.
The test system of the next data set is wounded sites. The note with it: systemic relaxin administration in rats; cited from earlier work.
Where [4] appears, read: systemic relaxin vs wounds not receiving systemic relaxin.
Where [5] appears, read: systemic relaxin, six weeks, blinded assessments.

“Also recorded” adds a separate entry of the source.

As to “relaxin: Recombinant relaxin identical to the native human hormone H2 relaxin, produced using a recombinant single chain process”, the “blood vessels / redness in the wound site” value in data set [1] (after about six weeks of treatment) is on record as “overall reduction in blood vessels; also recorded: significantly less redness”. In addition, the “wound appearance compared to control pig” value in data set [1] (after day six, systemic relaxin) is “healed faster, better”. For the same substance, in data set [1] (blinded neutral observers ranking the best three of six groups of wound pictures), the “visual wound assessment: share of times a relaxin treatment group was selected in the top three” value is 89%. The “cosmetic ranking of wound/scar areas, irrigation vs topical only” value in data set [1] (dermatologist cosmetic score, weeks 4 and 6, irrigation relaxin treatment vs only topical relaxin treatment) is “ranked higher overall”. For the same substance, in data set [1] (pig, in vivo), the “adverse effects associated with relaxin treatment (histopathology)” value is “no adverse effects” and the “necrosis or inflammation associated with relaxin treatment” value is “no necrosis or inflammation”. Besides, in data set [1] (six weeks of treatment, systemic relaxin vs placebo), the “scar visibility at wound site” value was “the scar is invisible; also recorded: no scar was visible”. In data set [1] (six weeks, relaxin treatment vs no relaxin treatment (severe scarring)), the “scarring on histopathological slide” value was “mild scarring”. For the same substance, in data set [1] (setting [4]), the “collagen organization (objective collagen scoring system, redness ratio)” value is “significantly better collagen organization” and the “composite wound healing score (three point scale, collagen appearance)” value is on record as “significantly improved”. Moreover, in data set [1] (setting [5]), the “chronic inflammation in wound sites (histology score)” value is recorded as “significantly reduced” and the “granulation tissue in wound sites (histology score)” value is “significantly reduced”. The “wound healing, systemic vs topical administration” value in data set [1] (systemic treatment compared to topical administration) is on record as “better wound healing”. In addition, the “wound healing compared to placebo” value in data set [1] (topical-only treatment (low and high dose, sections 5 and 6 vs section 4), six weeks) is listed as “improved wound healing”. In data set [2] (0.5 cm from site of injection), the “RLX detection in gingiva away from the site of injection” value (“RLX detection in gingiva away” below) was “detected”. In addition, the “RLX detection in gingiva away” value in data set [2] (1 cm from site of injection) is reported as “not detected”. Besides, in data set [2] (2 cm from site of injection), the “RLX detection in gingiva away” value was “not detected”. Moreover, the “RLX detection in gingiva” value in data set [2] (remaining time points (2 and 4 hrs)) is “only detected at the site of injection”. Further, in data set [2] (1 hr after gingival injection (25 μg H2 RLX/100 μl)), the “concentration of H2 RLX detected in treated dog gingiva” value (shortened to “concentration of H2 RLX detected”) is reported as 90 nM. Also, in data set [2] (2 hrs after gingival injection), the “concentration of H2 RLX detected” value is listed as 78 nM. The “concentration of H2 RLX detected” value in data set [2] (4 hrs after gingival injection) came to 21 nM. In data set [3], the “adverse effects and tolerability over dose range” value is on record as “no relevant adverse effects; also recorded: well-tolerated”. Also, in the data set on wounded sites, the “VEGF and bFGF transcripts at wounded sites” value was “upregulation”; the “new blood vessel formation at wounded sites” value is recorded as “increased new blood vessel formation”.
